In US9221823B2, “Crystal form of pyrrolidylthiocarbapenem derivative” (Shionogi & Co., Ltd., priority 2000, dated 2015):

What was measured:
Assay type in all cases: physicochemical
[1] = Moisture measurement after storage (Karl Fischer water determination); details: for Moisture absorption (in words): storage at 40° C. and 75% RH up to 1 month
Protocol: Storage conditions were 40° C. and 75% RH. The periods of time for storage were 1 week, 2 weeks and 1 month. During these storage periods, samples were stored in opened petri dishes. After storage in this manner, the moisture and potency of each sample were measured. The moisture was measured according to REQUIREMENT FOR ANTIBIOTIC PRODUCTS OF JAPAN General Tests MOISTURE DETERMINATION II Water determination. Note that Karl Fischer formamide methanol mixture II was used as the solvent.

[2] = Potency test by liquid chromatography after storage; details: for Change of potency over storage time (in words): storage at 40° C. and 75% RH up to 1 month
Protocol: Storage conditions were 40° C. and 75% RH. The periods of time for storage were 1 week, 2 weeks and 1 month. During these storage periods, samples were stored in opened petri dishes.
After storage in this manner, the moisture and potency of each sample were measured.
A potency test was conducted by the following method. About 0.025 g of each of the type IV crystal obtained in Example 4 and type II crystal and a standard product of S-4661 was precisely measured. Each sample was dissolved in water to precisely 100 mL. 10 mL of each solution was precisely measured, to which 5 ml of internal standard solution was added. As the internal standard solution, aqueous acetaminophen solution (concentration 1/20000:1 g of acetaminophen in 20000 ml of the solution) was used. Thereafter, water was added to each solution to 50 mL. Solutions prepared from the type IV or II crystals were used as sample solutions. A solution prepared from a standard product of S-4661 was used as a standard solution. 10 μL of each of the sample solutions and the standard solution were subjected to liquid chromatography under the following conditions. For the sample solution, the ratio QT of the peak area of S-4661 to the peak area of the internal standard substance was obtained. For the standard solution, the ratio QS of the peak area of S-4661 to the peak area of the internal standard substance was obtained.
Conditions for Operation • Detector: ultraviolet absorptiometer (measurement wavelength: 240 nm) • Column: a stainless steel tube having an inner diameter of about 4.6 mm and a length of about 15 cm was filled with 5 μm of octadecylsilylated silica gel for liquid chromatography (L-column ODS). • Column temperature: a constant temperature of around 25° C. • Mobile phase: 2 mmol/L phosphate buffer pH 5.8/acetonitrile mixture (191:9) • Flow rate: Flow rate was adjusted so that the retention time of S-4661 was about 8 to 9 minutes (about 1 mL/min). • Selection of column: 10 μL of standard solution was used and the operation was conducted under the above-described conditions. A column, which elutes S-4661 and the internal standard substance in this order and has a resolution between S-4661 and the internal standard substance of at least 3, was used.
Potencies were calculated by the following expression.

[3] = Assessment of storage stability of crystals; details: for Storage stability (in words): compared to conventional type I or II crystals
Protocol: The storage stability of the thus-obtained crystal of the present invention was assessed.
Hereinafter, a result of evaluation of comparing the stability of the crystals of the present invention with that of a conventional crystal (type II crystal) is specifically shown.
The stability of type II crystal of S4661 (conventional crystal) was compared with that of the type IV crystal obtained in the above-described Example 4.

[4] = 1 month storage at 40° C. and 75% RH, opened petri dish
[5] = 1 week storage at 40° C. and 75% RH, opened petri dish
[6] = 2 weeks storage at 40° C. and 75% RH, opened petri dish

Row | Moisture [1, 4] | Moisture [1, 5] | Moisture [1, 6] | Moisture ([1]; Initial time, before storage) | Moisture level at which moisture became constant ([1]; after about two weeks at 40° C. and 75% RH) | Moisture absorption (in words) ([1]; listed as type II crystal) | Potency [2, 4] | Potency [2, 5] | Potency [2, 6] | Potency ([2]; Initial time, before storage) | Change of potency over storage time (in words) ([2]; listed as type II crystal) | Moisture absorption (in words) ([1]; listed as type IV crystal) | Change of potency over storage time (in words) ([2]; listed as type IV crystal) | Storage stability (in words) ([3]; listed as type IV crystal) | Stability relative to type II crystal (other test results, in words) ([3]; other test results) | Structure (SMILES) | Storage stability (in words) ([3]; listed as type III crystal)
1 | 10.31% | 9.51% | 10.36% | 4.56% | about 10% | absorbs moisture | 826.4 µg/mg | 956.2 µg/mg | 923.0 µg/mg | 983.2 µg/mg | decreased over time |  |  |  |  | C[C@@H](O)[C@H]1C(=O)N2C(C(=O)O)=C(S[C@@H]3CN[C@H](CNS(N)(=O)=O)C3)[C@H](C)[C@H]12 [Type II, (+)-(4R,5S,6S)-6-[(1R)-1-hydroxyethyl]-4-methyl-7-oxo-3[[(3S,5S)-5-(sulfamoylaminomethyl)pyrrolidin-3-yl]thio]-1-azabicyclo[3.2.0]hept-2-ene-2-carboxylic acid] | 
2 |  |  |  |  |  |  |  |  |  |  |  |  |  |  |  | C[C@@H](O)[C@H]1C(=O)N2C(C(=O)O)=C(S[C@@H]3CN[C@H](CNS(N)(=O)=O)C3)[C@H](C)[C@H]12 [Type III, (+)-(4R,5S,6S)-6-[(1R)-1-hydroxyethyl]-4-methyl-7-oxo-3[[(3S,5S)-5-(sulfamoylaminomethyl)pyrrolidin-3-yl]thio]-1-azabicyclo[3.2.0]hept-2-ene-2-carboxylic acid] | excellent storage stability as compared to conventional type I or II crystals
3 | 4.99% | 4.79% | 4.89% | 4.62% |  |  | 981.5 µg/mg | 990.8 µg/mg | 992.4 µg/mg | 993.3 µg/mg |  | absorbs substantially no moisture | no significant change | more excellent storage stability | more stable than the type II crystal | C[C@@H](O)[C@H]1C(=O)N2C(C(=O)O)=C(S[C@@H]3CN[C@H](CNS(N)(=O)=O)C3)[C@H](C)[C@H]12 [Type IV, (+)-(4R,5S,6S)-6-[(1R)-1-hydroxyethyl]-4-methyl-7-oxo-3[[(3S,5S)-5-(sulfamoylaminomethyl)pyrrolidin-3-yl]thio]-1-azabicyclo[3.2.0]hept-2-ene-2-carboxylic acid] | 
